# Columns and labels:
# [1] = test system: hMSCs; test: Cell viability of hMSCs after estradiol treatment (photographs); type: cell-based, human; conditions: estradiol treatment for 4 days (FIG. 2C)
# [2] = test system: animal models for human diseases; conditions: administration of recombinant TSG-6; cited from earlier work
Compound,cell viability [1],beneficial effects compared with hMSCs [2]
C[C@]12CC[C@@H]3c4ccc(O)cc4CC[C@H]3[C@@H]1CC[C@@H]2O [estradiol],without affecting cell viability,–
"recombinant TSG-6: naturally occurring anti-inflammatory protein of 35 kDa, SEQ ID NO: 1; given as recombinant protein",–,reproduced most of the beneficial effects of the hMSCs

# From patent US20190048054A1, “Mesenchymal Stem Cells Expressing Biomarkers that Predict the Effectiveness of Mesenchymal Stem Cells for Treating Diseases and Disorders” (priority 2014, published 2019)
